From the NIST ThermoML archive (doi:10.1021/je5004669)

Details: 101.33 kPa, Liquid; for mass density: Vibrating tube method; for viscosity: Capillary tube (Ostwald / Ubbelohde) method

CCCN.CCCN.O=S(=O)([N-]S(=O)(=O)C(F)(F)F)C(F)(F)F.[Ag+]
Details | mass density [kg/m3] | viscosity [mPa·s]
293 K | 1637.5 | –
293.2 K | – | 46.09
298 K | 1632 | –
298.1 K | – | 36
303 K | 1626.3 | –
303.2 K | – | 31.07
308.2 K | – | 27.03
313 K | 1614.7 | –
313.2 K | – | 25.28
318.3 K | – | 21.28
323 K | 1603.5 | –
323.2 K | – | 18.21
328.2 K | – | 15.85
333 K | 1592.3 | –
333.2 K | – | 14.84
